# Assay results reported in PubChem BioAssay AID977613 (Broad Institute, 2014).
# The source made the active and inactive calls. No rule for the calls is given here.
# Tested on: Broad 7084-01 inhibitor HTS, set 2
# Experiment: single-concentration hits, screen 7084 set 2 (AID 977613);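 also: host cells are infected with parasite promastigotes that become internalized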
row,Structure (SMILES),active concentration
1,O=C([C@@H]1[C@@H](CO)[C@@H]2Cn3c(ccc(C4=CCCCC4)c3=O)[C@H]1N2Cc1nccs1)N1CCCCC1,> 10 µM (inactive)
2,Cc1ccccc1-c1ccc([C@@H]2[C@@H](CO)N3CCCCN(S(=O)(=O)Cc4ccccc4)C[C@H]23)cc1,> 10 µM (inactive)
3,CCc1csc(N2[C@H](C#N)[C@H](c3ccccc3-c3ccc(F)cc3)[C@H]2CO)n1,> 10 µM (inactive)
4,CN1CCN(C(=O)C[C@H]2CC[C@@H]3[C@H](COC[C@@H](O)CN3C(=O)C3CC3)O2)CC1,> 10 µM (inactive)
5,CC(C)C#Cc1ccc([C@H]2[C@@H](CO)N3C(=O)CN(C(=O)Cc4ccccc4)C[C@@H]23)cc1,> 10 µM (inactive)
6,O=C(Cc1ccccc1)N1C[C@@H]2[C@H](c3ccccc31)[C@@H](CO)N2C(=O)c1cccc(F)c1,> 10 µM (inactive)
7,COc1cccc(S(=O)(=O)N2CCCCN3[C@H](C2)[C@H](c2ccc(C#CCC(C)C)cc2)[C@@H]3CO)c1,> 10 µM (inactive)
8,CCNC(=O)Nc1ccc2c(c1)C(=O)N(C)[C@H]1CC[C@H](CC(=O)N[C@@H](C)c3ccccc3)O[C@H]1CO2,> 10 µM (inactive)
9,COCC#Cc1ccc([C@@H]2[C@H]3CN(C(=O)Nc4ccccc4F)CC(=O)N3[C@H]2CO)cc1,> 10 µM (inactive)
10,Cc1ccccc1S(=O)(=O)N1CC[C@@H]2[C@@H](CO)N(C)c3ccc(-c4cccc(C#N)c4)cc3[C@@H]21,> 10 µM (inactive)
11,C[C@@H](NC(=O)[C@@H]1[C@@H](CO)[C@@H]2Cn3c(ccc(-c4ccncc4)c3=O)[C@@H]2N1C)c1ccccc1,> 10 µM (inactive)
12,Cc1ccccc1-c1ccc([C@H]2[C@H]3CN(S(=O)(=O)Cc4ccccc4)CCCCN3[C@H]2CO)cc1,> 10 µM (inactive)
13,Cn1cnc(S(=O)(=O)N2C[C@@H](O)COC[C@H]3O[C@@H](CC(=O)NC4CCCC4)CC[C@@H]32)c1,> 10 µM (inactive)
14,CN(C)C(=O)C[C@@H]1CC[C@@H]2[C@H](COC[C@H](O)CN2C(=O)C2CC2)O1,> 10 µM (inactive)
15,Cc1cc(C(=O)Nc2ccc3c(c2)C(=O)N(C)[C@@H]2CC[C@@H](CC(=O)NCc4ccc(-c5ccccc5)cc4)O[C@H]2CO3)no1,> 10 µM (inactive)
16,CN1C(=O)c2cc(NC(=O)Cc3cccs3)ccc2OC[C@@H]2O[C@@H](CC(=O)N[C@@H]3CCN(Cc4ccccc4)C3)CC[C@H]21,> 10 µM (inactive)
17,O=C(c1cccc(F)c1)N1C[C@@H]2[C@H](c3ccccc31)[C@H](CO)N2C(=O)C1CCOCC1,> 10 µM (inactive)
18,CN(C)CCCNC(=O)C[C@H]1CC[C@H]2[C@@H](COC[C@@H](O)CN2CC2CC2)O1,> 10 µM (inactive)
19,CCCC(=O)N1CCC2(CC1)CN(Cc1ccc(Cl)cc1)[C@H](CO)c1[nH]c3cc(OC)ccc3c12,> 10 µM (inactive)
20,COc1ccccc1CN1CC[C@@H]2[C@@H](CO)Nc3ccc(C#Cc4ccccc4)cc3[C@@H]21,> 10 µM (inactive)
21,Cc1noc(C)c1NC(=O)N1C[C@H](O)COC[C@H]2O[C@H](CC(=O)NCC3CCCCC3)CC[C@@H]21,> 10 µM (inactive)
22,O=S(=O)(c1ccc(F)cc1)N1C[C@H]2[C@@H](c3ccccc31)[C@H](CO)N2Cc1ccc2c(c1)OCO2,> 10 µM (inactive)
23,CC(C)NC(=O)N1CC2(C1)[C@H](c1ccccc1)[C@@H](CO)N2CCC(F)(F)F,> 10 µM (inactive)

row,Structure (SMILES),active concentration
1,O=C(c1ccccn1)N1CC(=O)N2[C@H](CO)[C@H](c3ccc(C4=CCCC4)cc3)[C@@H]2C1,> 10 µM (inactive)
2,CN1C(=O)c2cc(NC(=O)C3CCOCC3)ccc2OC[C@H]2O[C@@H](CC(=O)NCC3CCCCC3)CC[C@H]21,> 10 µM (inactive)
3,CCC(=O)N1CC2(C1)[C@H](c1ccc(-c3ccc(C)cc3)cc1)[C@@H](CO)N2S(=O)(=O)CC,> 10 µM (inactive)
4,CN1C(=O)c2cc(NS(C)(=O)=O)ccc2OC[C@@H]2O[C@@H](CC(=O)NC3CCCCC3)CC[C@H]21,> 10 µM (inactive)
5,COCC(=O)N1CC2(C1)CN(C(=O)NC1CCCC1)[C@H](CO)c1c2c2ccc(OC)cc2n1C,> 10 µM (inactive)
6,CCS(=O)(=O)N1CC2(CN(Cc3cc(F)ccc3F)[C@H](CO)c3c2c2ccc(OC)cc2n3C)C1,> 10 µM (inactive)
7,CCC(=O)N1CC(=O)N2[C@H](CO)[C@@H](c3ccc(-c4ccc(C#N)cc4)cc3)[C@@H]2C1,> 10 µM (inactive)
8,COc1ccc(NC(=O)N2CCCCN3[C@H](C2)[C@H](c2ccc(-c4ccccc4F)cc2)[C@@H]3CO)cc1,> 10 µM (inactive)
9,O=C(C1CCCCC1)N1CC2(C1)[C@H](c1ccccc1)[C@@H](CO)N2C(=O)c1cccnc1,> 10 µM (inactive)
10,O=C(Nc1ccc(F)cc1)N1CC(=O)N2[C@H](CO)[C@H](c3ccc(C#Cc4cccnc4)cc3)[C@@H]2C1,> 10 µM (inactive)
11,CCCN1[C@H](C(=O)NCCCN2CCOCC2)[C@@H](CO)[C@@H]2Cn3c(ccc(-c4ccncc4)c3=O)[C@@H]21,> 10 µM (inactive)
12,O=C(C[C@H]1CC[C@@H]2[C@H](COC[C@@H](O)CN2S(=O)(=O)c2cccc(Cl)c2)O1)Nc1ccc(-c2ccccc2)cc1,> 10 µM (inactive)
13,OC[C@@H]1[C@H](c2ccc(Br)cc2)[C@H]2CN(Cc3ccccn3)CCCCN12,> 10 µM (inactive)
14,O=C(C[C@@H]1CC[C@@H]2[C@H](COC[C@H](O)CN2C(=O)c2ccccc2F)O1)NCc1ccccc1,> 10 µM (inactive)
15,COc1cccc(S(=O)(=O)N2CCCCN3[C@H](C2)[C@@H](c2ccc(C#CCC(C)C)cc2)[C@@H]3CO)c1,> 10 µM (inactive)
16,COc1ccc2c3c([nH]c2c1)[C@@H](CO)N(C(=O)CN(C)C)CC31CCN(Cc2cncnc2)CC1,> 10 µM (inactive)
17,COCC(=O)N1[C@H](C(=O)Nc2ccccc2)[C@@H](CO)[C@@H]2Cn3c(ccc(-c4cccnc4)c3=O)[C@@H]21,> 10 µM (inactive)
18,O=C(C[C@@H]1CC[C@H]2[C@@H](COC[C@H](O)CN2Cc2cc(F)ccc2F)O1)NCc1ccc(F)cc1,> 10 µM (inactive)
19,Cn1cnc(CCNC(=O)C[C@@H]2CC[C@H]3[C@@H](COC[C@@H](O)CN3C(=O)C3CC3)O2)c1,> 10 µM (inactive)
20,COc1cccc(C#Cc2ccc([C@H]3[C@@H](CO)N4C(=O)CN(C(=O)Cc5cccnc5)C[C@H]34)cc2)c1,> 10 µM (inactive)
21,CCCNC(=O)N1[C@@H](CO)[C@H](c2ccccc2)C12CN(C(=O)C1CCCCC1)C2,> 10 µM (inactive)
22,C/C=C/c1ccc([C@@H]2[C@@H](CO)N3C(=O)CN(C(=O)c4ccncc4)C[C@@H]23)cc1,> 10 µM (inactive)
23,C/C=C/c1ccc([C@@H]2[C@H](CO)N(CC3CCOCC3)C23CN(S(=O)(=O)CC)C3)cc1,> 10 µM (inactive)

row,Structure (SMILES),active concentration
1,CC(C)NC(=O)N1[C@@H]2CN(C)c3ccccc3[C@@H]2[C@@H]1CO,> 10 µM (inactive)
2,COc1ccc2c3c(n(C)c2c1)[C@H](CO)N(Cc1cccc(F)c1)CC31CCN(C(=O)Cc2ccccc2)CC1,> 10 µM (inactive)
3,CN1C(=O)c2cc(NC(=O)Nc3ccccc3Cl)ccc2OC[C@H]2O[C@@H](CC(=O)NCCCN3CCOCC3)CC[C@@H]21,> 10 µM (inactive)
4,O=C(Nc1ccccc1)N1C[C@H]2[C@@H](c3ccccc31)[C@H](CO)N2Cc1ccccc1Cl,> 10 µM (inactive)
5,COc1ccc(-c2ccccc2[C@H]2[C@@H](C#N)N(C(=O)NC3CCCCC3)[C@H]2CO)cc1,> 10 µM (inactive)
6,COCC(=O)N1[C@H](CO)[C@H](c2ccccc2-c2ccccc2F)[C@@H]1C#N,> 10 µM (inactive)
7,O=C(C[C@H]1CC[C@@H]2[C@H](COC[C@@H](O)CN2C(=O)c2ccncc2)O1)NCc1ccc(-c2ccccc2)cc1,> 10 µM (inactive)
8,OC[C@H]1[C@H](c2ccc(Br)cc2)[C@H]2CN(Cc3ccccn3)CCCCN21,< 10 µM
9,O=C(C1CCOCC1)N1CC(=O)N2[C@H](C1)[C@H](c1ccc(-c3cccnc3)cc1)[C@@H]2CO,> 10 µM (inactive)
10,COc1ccc2c3c(n(C)c2c1)[C@@H](CO)N(CC1CCCC1)CC31CN(C(=O)Nc2ccccc2)C1,> 10 µM (inactive)
11,COc1ccc2c3c([nH]c2c1)[C@@H](CO)N(C(=O)Nc1ccc(F)cc1)CC31CN(S(=O)(=O)c2ccc(C)cc2)C1,> 10 µM (inactive)
12,CC(C)NC(=O)Nc1ccc2c(c1)C(=O)N(C)[C@@H]1CC[C@@H](CC(=O)NCc3ccc(F)cc3)O[C@H]1CO2,> 10 µM (inactive)
13,CN(C)C(=O)C[C@H]1CC[C@@H]2[C@H](COC[C@@H](O)CN2C(=O)C2CC2)O1,> 10 µM (inactive)
14,CCCN1[C@@H]2c3ccc(-c4cncnc4)c(=O)n3C[C@@H]2[C@@H](CO)[C@@H]1C(=O)OC,> 10 µM (inactive)
15,CC(C)NC(=O)N1C[C@@H]2[C@H](c3ccccc31)[C@@H](CO)N2Cc1ccccn1,< 10 µM
16,CC(C)NC(=O)N1CC[C@@H]2[C@H]1c1cc(Br)ccc1N(C)[C@H]2CO,> 10 µM (inactive)
17,COc1cccc(-c2ccc3c(c2)[C@H]2[C@H](CCN2C(=O)Cc2ccccc2)[C@H](CO)N3)c1,> 10 µM (inactive)
18,COc1ccc2c3c([nH]c2c1)[C@@H](CO)N(C(=O)Nc1ccc(F)cc1)CC31CN(C(=O)c2ccccc2F)C1,> 10 µM (inactive)
19,CCS(=O)(=O)N1CC(=O)N2[C@@H](CO)[C@@H](c3ccc(C#CC4CCCCC4)cc3)[C@@H]2C1,> 10 µM (inactive)
20,O=C(Nc1cccc(Cl)c1)N1C[C@@H]2[C@H](c3ccccc31)[C@H](CO)N2CC1CCOCC1,> 10 µM (inactive)
21,COc1ccccc1CNC(=O)C[C@@H]1CC[C@H]2[C@@H](COC[C@@H](O)CN2C(=O)Nc2ccccc2)O1,> 10 µM (inactive)
22,O=C(C[C@H]1CC[C@@H]2[C@H](COC[C@@H](O)CN2S(=O)(=O)c2cccc(Cl)c2)O1)NC1CCC1,> 10 µM (inactive)
23,N#C[C@H]1[C@H](c2ccccc2-c2ccccc2F)[C@@H](CO)N1C(=O)C1CCC1,> 10 µM (inactive)
